Experimental findings from paper PMC7705112, “A Novel, Broad-Acting Peptide Inhibitor of Double-Stranded DNA Virus Gene Expression and Replication” (Frontiers in Microbiology, 2020) are described below.

For one data set, the system named is murine CMV (MCMV). The data set is classed as cell-based, murine cytomegalovirus. The note with it: NIH/3T3, MOI 0.5, 72 h; Figures 4A, S4A. Here is the method: NIH/3T3 cells were seeded at a density of 2 × 10^4 cells/well of a 96-well plate and allowed to attach overnight. On the next day, medium was removed and replaced by medium containing peptide dilutions. Then, murine CMV (MCMV) expressing firefly luciferase ([Trilling et al., 2011]) was added to the cells at a MOI of 0.5 with aid of centrifugal enhancement at 800 × g for a total of 30 min.
Virus adsorption was performed by addition of MCMV expressing luciferase at a MOI of 0.5 with centrifugal enhancement at +4°C and further incubation at +4°C for 60 min before removal of unabsorbed virus and three times washing of cells with cold medium. […] After 72 h incubation at 37°C, luciferase levels were determined from cell lysates as described above.
In another setting, NIH/3T3 cells were preincubated with TAT-I24 at concentrations of 1 and 10 μM for 1, 3, and 6 h followed by removal of peptide and 3x washing with medium. […] After 72 h, luciferase levels were determined from cell lysates as described above.
A, NIH/3T3 cells were seeded at a density of 2 x 10^4 cells/well of a 96-well plate and treated on the next day with increasing concentrations of I24 or TAT-I24 and infected with MCMV (MOI = 0.5). After 72 hrs, luciferase was determined from cell lysates. Results shown are luciferase levels expressed as % of control from duplicate wells. […] Plaque formation was determined after 5 days. […]

The subject of a further data set is TZM-bl reporter cells. As to the kind of experiment: Reporter gene expression in non-infected TZM-bl cells. Conditions: 48 hours after treatment; Figure S7. A general note: Reporter assays use an easily measured gene product as a stand-in for the process of interest.
A further data set relates to RSV (strain A2). Nature of the data set: RSV cytopathic effect. The data set is classed as cell-based, Respiratory syncytial virus A. The note with it: human Hep2 cells, pre-treated, infected 2 hrs at 37°C, 3 days, microscopy. On the procedure: Respiratory syncytial virus (RSV): Human Hep2 cells were pre-treated with peptides and infected with cell-free RSV Stock (strain A2) for 2 hrs at 37°C. Medium was then removed and unabsorbed virus removed by washing. Medium containing peptide dilutions was then added to cells.

Data set [1] concerns vaccinia virus wild-type (strain Western Reserve). The note with it: Figure 9B.
The test system of another data set is HCMV TB40. As to the kind of experiment: Replicon assay (AAV-GLuc-3B), MRC-5 cells, HCMV. The data set is classed as cell-based, human cytomegalovirus. Conditions: MRC-5, 3 days; Figure 7A, TAT (48–60). A general note: Replicon systems follow genome replication, usually without infectious particles.
Another data set has as its system MCMV S-mCherry-SCP. Nature of the data set: MCMV S-mCherry-SCP replication, microscopy. In kind it is cell-based, murine cytomegalovirus. Conditions: NIH/3T3, various concentrations, 72 h; Figure 4C. On the procedure:
For analysis of MCMV replication, NIH/3T3 cells were seeded at a density of 2 × 10^4 cells/well of ibiTreat eight-well chambers (ibidi, Germany). On the next day, cells were treated with peptides and infected with murine CMV S-mCherry-SCP ([Bosse et al., 2012]) at a MOI 0.2 for 72 h before fixation with 5% formaldehyde and staining of nuclei with DAPI. Microscopic examination was performed using a Live Cell Video Microscope (Leica Microsystems).

The subject of another data set is adenovirus 5. The data set is classed as cell-based.
The subject of another data set is adenovirus type 5. In kind it is cell-based. On the procedure:
Luciferase from cell lysates was recorded 24 hours after infection. Results shown are luciferase levels expressed as % of control from duplicate wells. Luciferase was detected using Luciferase Assay System as described in Materials & Methods of the main article.

The subject of the next data set is Varicella zoster virus. Nature of the data set: VZV cytopathic effect. The note with it: human fibroblasts, pre-treated, infected 1 h, three days, microscopy. (In general: Damage to the host cells serves as the signal in cytopathic effect assays.)
The next data set concerns adenovirus 4. Nature of the data set: Replicon assay (AAV-GLuc-3B), A549 cells, adenovirus 4. The data set is classed as cell-based. The note with it: A549, MOI 1.0, at the concentrations used; Figures 3D, S3A.
For data set [2], the system named is HEK293 cells. As to the kind of experiment: Cell viability, CellTiter-Glo 2.0. Conditions: 96 h incubation; Figure 2B, triplicate wells. In kind it is cell-based. Here is the method: (§1) Vero, MRC-5, and CV-1 cells were cultured in Dulbecco’s Modified Eagle Medium (DMEM; ThermoFisher, Waltham, MA, United States) and Jurkat cells were cultured in RPMI 1640 medium containing 10% fetal calf serum, 100 U/ml penicillin, and 0.1 mg/ml streptomycin (ThermoFisher). HEK293 and NIH/3T3 cells were adapted to growth in CO2-independent medium supplemented with 10% fetal calf serum, 2 mM glutamine, and 1% antibiotic-antimycotic (ThermoFisher) and cultivated in a humidified atmosphere at 37°C. […] Viability was analyzed using CellTiter-Glo® 2.0 Assay according to the manufacturer’s protocol (Promega). […] Cytotoxicity was analyzed using MultiTox-Glo Multiplex Cytotoxicity Assay according to the manufacturer’s protocol (Promega).

The next data set relates to HSV-1 UL30 gene. As to the kind of experiment: HSV-1 UL30 transcripts by real-time PCR. Conditions: cells from the replicon assay; Figures 8B, S6C.
For another data set, the system named is NIH/3T3 cells. As to the kind of experiment: Cytotoxicity, MultiTox-Glo Multiplex. The data set is classed as cell-based. The note with it: 72 h; Figure 4B, triplicates. On the procedure:
as §1

A further data set has as its system influenza A PR8. Nature of the data set: Influenza A plaque-formation assay. The note with it: MDCK cells, three days, at the concentrations used.
Another data set deals with adenovirus 19a/64. As to the kind of experiment: Replicon assay (AAV-GLuc-3B), A549 cells, adenovirus 19a/64. The data set is classed as cell-based. The note with it: A549, MOI 1.0, at the concentrations used; Figures 3D, S3A.
Data set [3] has as its system HSV-1 F, HSV-1 703, HSV-1 601. The data set is classed as cell-based, herpes simplex virus. The note with it: Figure 8A, triplicate wells.
The test system of the next data set is VZV transcripts. As to the kind of experiment: VZV transcripts by real-time PCR. In kind it is cell-based, varicella zoster virus. Conditions: lysates of infected cells, normalized to GAPDH mRNA; Figure S8; read-out: EC50, reduction of VZV transcripts. Here is the method: VZV transcripts were analysed from lysates of infected cells by real-time PCR using ViroReal® VZV (RTGM20V; Ingenetix GmbH, Austria) and normalized to GAPDH mRNA.

Data set [4] relates to RSV RNA (nucleocapsid protein gene). As to the kind of experiment: RSV RNA by real-time PCR. The data set is classed as cell-based, Respiratory syncytial virus. Here is the method:
Lysates from infected cells were examined for the presence of RSV RNA by real-time PCR using ViroReal® RSV (RTGM20V; Ingenetix GmbH, Austria) detecting the nucleocapsid protein gene of RSV and normalized to GAPDH mRNA. Calculated EC50 was 0.8 µM for TAT-I24 with 80% inhibition at the highest concentration (20 µM). Ribavirin was included as control.

For data set [5], the system named is HEK293 cells. Nature of the data set: Morphology of HEK293 cells. In kind it is cell-based.
The next data set has as its system Baculovirus-Luc. The note with it: 24 h, Figure 2A.
In another data set the test system is GAPDH mRNA, MRC-5 cells. As to the kind of experiment: GAPDH mRNA in cells of the HCMV replicon assay. The note with it: at the highest concentration of 20 μM; no effect below.

Entries after “also recorded” stand apart in the source; their conditions may differ. Where two headings read alike, the source gives them in different places. Peptide text beside a SMILES is read from it.

As for “GRKKRRQRRRPPQ [TAT, HIV-TAT peptide (48–60), …, cell penetrating peptide]”, the “effect on luciferase expression” value in the data set on murine CMV (MCMV) is listed as “only partially decreased”. In the data set with TZM-bl reporter cells, the “effect on reporter gene expression in the absence of virus” value is “No inhibition”. Moreover, the CPE result with RSV (strain A2) and in the data set on Varicella zoster virus was “no inhibition” each time. Besides, the “effect on VACV wt replication” value in [1] (CV-1) is recorded as “no effect”. Further, the “effect on HCMV replication” value in the data set on HCMV TB40 is given as “no effect”. For the same molecule, in the data set on MCMV S-mCherry-SCP, the “cells producing virus particles” value was “cells producing virus particles were seen”. Further, the effect on replication result in the data set with adenovirus 5 (A549, Figure S3A) was “no effect”; in the data set on adenovirus 4, “no effect”; in the data set on adenovirus 19a/64, “no effect”. The “effect on reporter gene expression” value in the data set with adenovirus type 5 (HEK293, 24 h, Figure 3A, TAT (48–60)) was “ineffective”. In addition, the “effects on HEK293 cell viability” value in the data set on HEK293 cells [2] is “no effects”. In addition, the “UL30 transcript levels normalized to 18S rRNA” value in the data set on HSV-1 UL30 gene is recorded as “No effect; also recorded: does not affect”. In the data set with NIH/3T3 cells, the “cytotoxic effects (viable and dead cells)” value is “No cytotoxic effects”. Further, the Plaque assay entry in the data set on influenza A PR8 was “no inhibition”.
As to `CC(C)C[C@H](NC(=O)[C@H](CS)NC(=O)[C@H](CCC(N)=O)NC(=O)[C@@H]1CCCN1C(=O)[C@@H]1CCCN1C(=O)[C@H](CCCNC(=N)N)NC(=O)[C@H](CCCNC(=N)N)NC(=O)[C@H](CCCNC(=N)N)NC(=O)[C@H](CCC(N)=O)NC(=O)[C@H](CCCNC(=N)N)NC(=O)[C@H](CCCNC(=N)N)NC(=O)[C@H](CCCCN)NC(=O)[C@H](CCCCN)NC(=O)[C@H](CCCNC(=N)N)NC(=O)CN)C(=O)N[C@@H](C)C(=O)N[C@@H](Cc1ccccc1)C(=O)N[C@@H](Cc1ccc(O)cc1)C(=O)N[C@@H](C)C(=O)N[C@@H](CS)C(=O)N[C@@H](Cc1ccccc1)C(=O)N[C@@H](CS)C(=O)O` [TAT-I24] (H-GRKKRRQRRRPPQCLAFYACFC-OH), the EC50 worked out at 790 nM in data set [1] (read-out: EC50, inhibition of VACV wt replication, CV-1, MOI 0.2, 1 h preincubation, 24 h, TCID50, two independent experiments); 370 nM in data set [3] (HSV1 601 (aciclovir-sensitive isolate)); 910 nM in [3] (HSV1 703 (aciclovir-resistant isolate)); 1930 nM in data set [3] (HSV-1 F); 3250 nM with adenovirus 5 (A549, MOI 1.0, Gaussia luciferase after 24 h, Figure 3D, triplicate wells, read-out: EC50, inhibition of replication); 3140 nM in the data set on adenovirus type 5 (HEK293, adenovirus-GFP-Luc, 24 h, single value of Figure 3A (duplicate wells), read-out: EC50, inhibition of reporter gene expression). Moreover, the EC50 was 3300 nM in the data set on VZV transcripts; 800 nM in [4] (lysates from infected cells, normalized to GAPDH mRNA, Figure S9); 170 nM with Baculovirus-Luc (read-out: EC50, inhibition of reporter gene expression, HEK293, MOI 5, peptide added together with baculovirus, duplicate wells). Also, the “effects on HEK293 cell viability” value in the data set with HEK293 cells [2] is “no effects”. Also, the “inhibition of RSV RNA” value in data set [4] (at the highest concentration (20 µM)) came to 80%. Besides, the “concentrations at which some morphological changes were observed” value with HEK293 cells [5] is listed as greater than 10 μM. Besides, the “effect on mock infected CV-1 cells” value with CV-1 cells is listed as “No effect”. In addition, in the data set on CV-1 cells (at higher dosages (20 and 6.6 μM)), the “effects on CV-1 cell attachment” value was “some effects”. Moreover, the “inhibition of reporter gene expression” value with Baculovirus-Luc (HEK293, peptide added together with baculovirus) was greater than 95%. For the same molecule, the “cytotoxic effects (viable and dead cells)” value in the data set on NIH/3T3 cells is reported as “No cytotoxic effects”. Besides, the “GAPDH mRNA levels” value in the data set with GAPDH mRNA, MRC-5 cells was “some reduction”.

One may read the EC50 as the concentration that produces a half-maximal response.
